# Measured values from patent publication US4298739A, “Novel carbostyril derivatives” (priority 1977, dated 1981).
# Where two headings read alike, the source gives them in different places.
# Columns and labels:
# [1] = target: T1, cyclic AMP phosphodiesterase (Oryctolagus cuniculus, UniProt G1ST54); experiment: Obstructive action against cyclic AMP phosphodiesterase; format: biochemical, rabbit
# T1 construct: the supernatant was collected to use it as a crude enzyme solution; from tissue; host or cells: rabbit platelets (from platelet-rich plasma), 100,000 xg supernatant, DEAE-cellulose fraction
# T1 sequence (G1ST54 1-1128): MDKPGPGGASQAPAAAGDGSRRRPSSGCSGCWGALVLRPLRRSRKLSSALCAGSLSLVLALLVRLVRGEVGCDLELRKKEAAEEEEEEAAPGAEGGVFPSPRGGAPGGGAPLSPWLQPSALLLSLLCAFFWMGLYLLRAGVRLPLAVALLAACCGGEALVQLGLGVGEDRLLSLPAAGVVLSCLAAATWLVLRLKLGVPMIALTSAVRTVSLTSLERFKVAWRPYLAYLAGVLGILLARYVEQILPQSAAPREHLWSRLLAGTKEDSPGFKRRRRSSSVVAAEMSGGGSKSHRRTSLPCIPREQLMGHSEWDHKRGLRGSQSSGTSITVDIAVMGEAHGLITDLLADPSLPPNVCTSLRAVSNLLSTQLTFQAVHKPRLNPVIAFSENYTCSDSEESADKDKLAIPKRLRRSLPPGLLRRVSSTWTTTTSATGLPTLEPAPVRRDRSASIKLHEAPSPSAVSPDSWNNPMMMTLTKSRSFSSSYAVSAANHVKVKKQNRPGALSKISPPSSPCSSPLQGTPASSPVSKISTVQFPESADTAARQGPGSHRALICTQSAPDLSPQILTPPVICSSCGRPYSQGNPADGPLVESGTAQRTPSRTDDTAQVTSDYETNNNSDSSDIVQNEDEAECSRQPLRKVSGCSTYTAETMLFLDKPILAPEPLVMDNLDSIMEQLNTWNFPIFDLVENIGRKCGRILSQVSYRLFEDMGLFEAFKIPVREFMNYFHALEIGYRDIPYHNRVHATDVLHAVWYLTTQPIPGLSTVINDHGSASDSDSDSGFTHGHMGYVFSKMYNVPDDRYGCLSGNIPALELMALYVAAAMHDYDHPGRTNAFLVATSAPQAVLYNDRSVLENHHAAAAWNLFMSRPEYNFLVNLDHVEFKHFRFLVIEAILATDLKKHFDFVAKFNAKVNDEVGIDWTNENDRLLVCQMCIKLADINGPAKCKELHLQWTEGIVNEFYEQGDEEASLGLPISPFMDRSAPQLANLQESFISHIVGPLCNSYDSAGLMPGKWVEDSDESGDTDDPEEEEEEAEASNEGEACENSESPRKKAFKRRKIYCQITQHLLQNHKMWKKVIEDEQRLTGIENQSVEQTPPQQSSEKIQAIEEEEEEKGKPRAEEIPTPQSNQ
# Description: The obstructive action against cyclic AMP phosphodiesterase was measured according to the activity measuring method described in "Biochimica et Biophysica Acta", Vol. 429, pp. 485-497 (1976) and "Biochemical Medicine", Vol. 10, pp. 301-311 (1974).
# That is, for determining the obstructive activity against cyclic AMP phosphodiesterase, 10 ml of a solution obtained by adding 1 mmol of MgCl2 into 50 mmol of tris-hydrochloric acid buffer with pH 7.4 was added to the platelets obtained by further centrifuging the abovesaid rabbit PRP at 3,000 r.p.m. for 10 minutes, and the suspended platelets were ground by a Teflon potter type homogenizer. This was followed by two times of freezing and thawing treatment and 300-second fracturing with 200 watt supersonic waves. After additional 60-minute centrifugation with 100,000 xg, the supernatant was collected to use it as a crude enzyme solution.
# 10 Milliliters of this crude buffer solution was added to a 1.5×20 cm DEAE-cellulose column which has previously been buffered with 50 mmol of tris-acetate buffer (pH 6.0), followed by washing and elution with 30 ml of 50 mmol tris-acetate buffer, and this buffer solution was subjected to linear gradient elution with 0 to 0.5 moles of sodium acetate-tris-acetatebuffer. The flow rate was 0.5 ml/min, and 5 ml of each fraction was batched out. […] This fraction was used as cyclic AMP phosphodiesterase.
# 0.1 Milliliter of an aqueous solution of each test compound of a specified concentration was mixed with 40 mmol of tris-hydrochloric acid buffer (pH 8.0, containing 50 μg of cow serum albumin and 4 mmol of MgCl2) containing predetermined 1.0 μmol of cyclic AMP (tritium cyclic AMP), and 0.2 ml of this mixed solution was used as substrate solution.
# 0.2 Milliliter of the above-prepared cyclic AMP phosphodiesterase of a predetermined concentration was added to said substrate solution and the mixture was reaction at 30° C. for 20 minutes, producing tritium 5'-AMP from the tritium cyclic AMP.
# The reaction system was then immersed in boiling water for 2 minutes to stop the reaction, and then this reaction solution was cooled in ice water and, for converting the produced tritium 5'-AMP into tritium adenosine, the solution was added with 0.05 ml (1 mg/ml) of snake poison as 5'-nucleotidase and reacted at 30° C. for 10 minutes. The whole amount of this reaction solution was then added to a cation exchange resin (AG 500 W×4, 200-400 meshes, manufactured by Bio-Rad Co., column size: 0.5×1.5 cm), and the produced tritium anodesine alone was allowed to combine, washed with 6 ml of distilled water and eluted with 1.5 ml of 3 N-ammonia water. The whole quantity of the elutant was added with 10 ml of a triton-toluene type scintillator and the produced tritium adenosine was measured by a liquid scintillation counter to determine the phosphodiesterase activity.
# In this way, the phosphodiesterase activation value (Vs) of the test compounds of the respective concentrations was determined, and the phosphodiesterase obstruction rate (%) was determined from said activation value (Vs) and control value (Vc) (obtained from water not containing any test compound) from the following formula: [formula]
# [2] = Acute toxicity test, oral administration to mice; format: in vivo; settings: mouse, in vivo, Male mice
# Description: The test compounds were administered orally to the mice and LD50 (mg/kg) of the compounds was determined.
# [3] = pH 8, read-out: phosphodiesterase obstruction rate
Compound,"inhibition at 10 µM ([1]; 10^-5 mole, 1.0 μmol cyclic AMP, pH 8.0, 30° C., read-out: phosphodiesterase obstruction rate)","inhibition at 1 µM ([1]; 10^-6 mole, 1.0 μmol cyclic AMP, pH 8.0, 30° C., read-out: phosphodiesterase obstruction rate)","inhibition at 0.1 µM ([1]; 10^-7 mole, 1.0 μmol cyclic AMP, pH 8.0, 30° C., read-out: phosphodiesterase obstruction rate)","inhibition at 0.01 µM ([1]; 10^-8 mole, 1.0 μmol cyclic AMP, pH 8.0, 30° C., read-out: phosphodiesterase obstruction rate)","inhibition at 0.001 µM ([1]; 10^-9 mole, 1.0 μmol cyclic AMP, pH 8.0, 30° C., read-out: phosphodiesterase obstruction rate)",LD50 [2],"inhibition at 0.001 µM [1, 3]","inhibition at 0.01 µM [1, 3]","inhibition at 0.1 µM [1, 3]","inhibition at 1 µM [1, 3]","inhibition at 10 µM [1, 3]"
"CC(=O)OC1CCC(N(C)C(=O)CCCOc2ccc3[nH]c(=O)ccc3c2)CC1 (stereo not drawn) [compound 3, 6-{3-[N-Methyl-N-(4-acetyloxycyclohexyl)aminocarbonyl]propoxy}carbostyril]",98.5%,95.5%,88.4%,61.1%,13.4%,> 1000 mg/kg,,,,,
"CN(C(=O)CCCOc1ccc2[nH]c(=O)ccc2c1)C1CCCCC1 [compound 16, 6-[3-(N-Methyl-N-cyclohexylaminocarbonyl)propoxy]carbostyril]",,,,,,> 1000 mg/kg,7.1%,22.3%,79.3%,87.5%,80.5%
